From patent US10173968B2, “Bishydrazone-based antifungal agents” (University of Kentucky Research Foundation, priority 2016, dated 2019)
Converted amounts (≈) assume the structure as drawn.

Experiments:
Test in all cases: Antifungal MIC, CLSI M27-A3 microbroth dilution
Type in all cases: cell-based, Candida albicans
C. albicans ATCC 64124 = details: C. albicans ATCC 64124, resistant to FLC, ITC, and VOR
Method: (§1) In vitro MIC testing was performed according to the CLSI M27-A3 standard microbroth dilution methodology for the susceptibility testing of yeasts with minor modifications.

C. albicans ATCC 1237 = details: C. albicans ATCC 1237, resistant to FLC, ITC, and VOR
Method: as §1

C. albicans ATCC 90819 = details: C. albicans ATCC 90819, resistant to FLC, ITC, and VOR
Method: as §1

C. albicans ATCC 10231 = details: C. albicans ATCC 10231, resistant to FLC, ITC, and VOR
Method: as §1

C. albicans ATCC 2876 = details: C. albicans ATCC 2876, susceptible to FLC, ITC, and VOR
Method: as §1

C. albicans ATCC 2310 = details: C. albicans ATCC 2310, susceptible to FLC, ITC, and VOR
Method: as §1

C. albicans ATCC 1003 = details: C. albicans ATCC 1003
Method: as §1

MIC (C. albicans ATCC 64124): 2.0 to 3.9 µg/mL
MIC (C. albicans ATCC 64124; converted from μg/mL): (2.1-4.2) μM
MIC (C. albicans ATCC 1237): 3.9 µg/mL (≈ 4.22 µM)
MIC (C. albicans ATCC 1237; converted from μg/mL): (4.2) μM
MIC (C. albicans ATCC 90819): 2.0 µg/mL (≈ 2.16 µM)
MIC (C. albicans ATCC 90819; converted from μg/mL): (2.1) μM
MIC (C. albicans ATCC 10231): 3.9 µg/mL (≈ 4.22 µM)
MIC (C. albicans ATCC 10231; converted from μg/mL): (4.2) μM
MIC (C. albicans ATCC 2876): 3.9 µg/mL (≈ 4.22 µM)
MIC (C. albicans ATCC 2876; converted from μg/mL): (4.2) μM
MIC (C. albicans ATCC 2310): 3.9 µg/mL (≈ 4.22 µM)
MIC (C. albicans ATCC 2310; converted from μg/mL): (4.2) μM
MIC (C. albicans ATCC 1003; converted from μg/mL): (4.2) μM
MIC (C. albicans ATCC 1003; range 0.5 to […]): 3.9 µg/mL (≈ 4.22 µM)
SMILES: C[C@@H]1[C@H](O)[C@@H](C)/C=C/C=C/C=C/C=C/C=C/C=C/C=C/[C@H](O[C@@H]2O[C@H](C)[C@@H](O)[C@H](N)[C@@H]2O)C[C@@H]2O[C@](O)(C[C@@H](O)C[C@@H](O)[C@H](O)CC[C@@H](O)C[C@@H](O)CC(=O)O[C@H]1C)C[C@H](O)[C@H]2C(=O)O [AmB, amphotericin B, reference compound]
